According to PubChem BioAssay (NCI):
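Growth conditions: 96-well plates. Treatment: test compound, 48 hours, 5 concentrations. Analysis: linear interpolation between bracketing concentrations; unreached endpoints set to highest concentration. Definition used: TGI = concentration required for complete inhibition of growth.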

How the values were obtained:
Assay in all cases: growth of human tumour cells (NCI), 48 h
[1] = test system: T-47D breast
[2] = test system: SF-295 CNS
[3] = test system: IGROV1 ovarian
[4] = test system: SK-MEL-5 melanoma
[5] = test system: SN12C renal
[6] = test system: COLO 205 colon
[7] = test system: HCT-116 colon
[8] = test system: UACC-257 melanoma
[9] = test system: M14 melanoma
[10] = test system: SF-268 CNS
[11] = test system: MALME-3M melanoma
[12] = test system: OVCAR-8 ovarian
[13] = test system: SNB-75 CNS
[14] = test system: UACC-62 melanoma
[15] = test system: MOLT-4 leukemia
[16] = test system: NCI/ADR-RES ovarian
[17] = test system: NCI-H460 lung
[18] = test system: A549 NSCLC
[19] = test system: HS 578T breast
[20] = test system: SK-MEL-2 melanoma
[21] = test system: HCT-15 colon
[22] = test system: HOP-62 NSCLC
[23] = test system: ACHN renal
[24] = test system: LOX IMVI melanoma
[25] = test system: OVCAR-3 ovarian
[26] = test system: EKVX NSCLC
[27] = test system: SR leukemia
[28] = test system: SW-620 colon
[29] = test system: MDA-N
[30] = test system: MDA-MB-231 breast
[31] = test system: NCI-H522 lung
[32] = test system: DU-145 prostate
[33] = test system: OVCAR-4 ovarian
[34] = test system: HOP-92 NSCLC
[35] = test system: SK-OV-3 ovarian
[36] = test system: HT29 colon
[37] = test system: PC-3 prostate
[38] = test system: RXF 393 renal
[39] = test system: NCI-H23 lung
[40] = test system: CCRF-CEM leukemia
[41] = test system: RPMI-8226 leukemia
[42] = test system: TK-10 renal
[43] = test system: NCI-H226 lung
[44] = test system: SNB-19 CNS
[45] = test system: U251 CNS
[46] = test system: 786-0 renal
[47] = test system: SF-539 CNS
[48] = test system: A498 renal
[49] = test system: K-562 leukemia
[50] = test system: KM12 colon
[51] = test system: SK-MEL-28 melanoma
[52] = test system: MCF7 breast
[53] = test system: HL-60(TB) leukemia
[54] = test system: CAKI-1 renal
[55] = test system: UO-31 renal
[56] = test system: MDA-MB-435
[57] = test system: HCC-2998 colon

Measured: TGI

CC(C)c1cc(C(C)C)c(B(c2ccccc2)c2ccccc2)c(C(C)C)c1B(c1ccccc1)c1ccccc1
> 100 µM: [1] | [2] | [3] | [4] | [5] | [6] | [7] | [8] | [9] | [10] | [11] | [12] | [13] | [14] | [15] | [16] | [17] | [18] | [19] | [20] | [21] | [22] | [23] | [24] | [25] | [26] | [27] | [28] | [29] | [30] | [31] | [32] | [33] | [34] | [35] | [36] | [37]

O=NNc1c[nH]c(=O)[nH]c1=O
> 100 µM: [38] | [39] | [40] | [41] | [1] | [42] | [2] | [43] | [3] | [4] | [5] | [6] | [7] | [44] | [8] | [9] | [45] | [11] | [12] | [46] | [47] | [48] | [49] | [50] | [13] | [51] | [52] | [14] | [15] | [16] | [18] | [20] | [21] | [22] | [23] | [24] | [25] | [26] | [28] | [53] | [54] | [55] | [29] | [30] | [31] | [56] | [32] | [33] | [57] | [34] | [35] | [37]
